Columns and labels:
RAJI cells = test: T cell cytotoxicity against RAJI (Matador assay, Gluc); assay type: cell-based
[1] = Flow cytometry of expanded CAR-T/SIR-T cells (Protein L staining, T cell surface markers); assay type: cell-based, human; settings: CAR-T and SIR-T cells expanded 7 days with 1 µM
Protocol: Cells were expanded in XVIVO medium under standard conditions in the presence of IL2 and CD3/CD28 beads in the absence or presence of Birinapant 1 µM for 7 days and. After 7 days, cells were analyzed by flow cytometry for expression of different cell surface markers.
Cells were pelleted and re-suspended in XVIVO-15 (Lonza) T-cell medium supplemented with PSA, 100 IU/ml recombinant human IL2 and Dynabeads Human T-Activator CD3/CD28 and 5% hAB serum.
The cells were analyzed by flow cytometery for expresson of SIR by staining with Protein L and for presence of different T cell markers.
After 13 days of culture, cells were counted and analyzed by flow cytometry.

Nalm6 cells = test: Cytokine ELISA (IFNγ, TNFα, IL-2) after co-culture with Nalm6; assay type: cell-based; settings: T cells expanded 7 days with compound, co-cultured with Nalm6 48 h
Protocol: After 48 h, supernatant was collected and used for measurement of IFNγ, TNFα and IL-2 by ELISA.
Control T cells or SIR-T cells grown in regular flask or G-Rex 6-well plate were cultured with Nalm6-hGLuc 100 K/well/100 ul in 96-well plate U-bottom in XVIVO medium with no additional component. After 48 h co-culture, supernatant was collected and used for ELISA.
The supernatant from the different cell populations were tested for cytokine production upon co-culture with NALM6 cells.

CC[C@H](NC(=O)[C@H](C)NC)C(=O)N1C[C@@H](O)C[C@H]1Cc1c(-c2[nH]c3cc(F)ccc3c2C[C@@H]2C[C@H](O)CN2C(=O)[C@H](CC)NC(=O)[C@H](C)NC)[nH]c2cc(F)ccc12 [Birinapant]
non-specific killing by uninfected control T cells expanded in presence of SMAC mimetic (RAJI cells; 100 nM or 1 µM, 16 days, RAJI-Gluc, 4 h): no effect | cell killing of RAJI cells by SAR-T cells expanded in presence of SMAC mimetic (RAJI cells; SAR SEQ ID NO: 7348 T cells expanded 16 days with 100 nM or 1 µM, E:T 0.25:1 and 0.5:1, 4 h): dose dependent increase | CD4 cells [1]: decline | CD62L cells [1]: increase | proportion of CD8 cells [1]: increase | IFNγ secretion (Nalm6 cells): no significant decrease | IL2 secretion (Nalm6 cells): no significant decrease | TNFα secretion (Nalm6 cells): no significant decrease
